Laboratory results from patent US8404721B2, “Compositions and methods for treating seizure disorders” (Allergan, Inc., priority 2009, dated 2013).

System: Male C57B/6 mice
Assay: Pentylenetetrazol (PTZ)-induced convulsions in mice
Assay type: in vivo
Details: for Latency to first convulsion: convulsion level 3 or higher; for Number of events Myoclonic: level 3+level 4 events; for Number of events Myoclonic / Number of events Clonic / Number of events Tonic-Clonic: scored 10 minutes; for Number of events Clonic: level 5 events; for Number of events Tonic-Clonic: level 6+level 7 events
Description: Male C57B/6 mice (20-25 g) were administered intraperitoneal Compound A (1 mg/kg), Compound B (1 or 10 mg/kg), Compound C (1 mg/kg), diazepam (0.5 mg/kg), gabapentin (50 mg/kg), or vehicle (ddH 2O) prior to treatment with pentylenetetrazol (PTZ, 50 mg/kg IP). Compounds A, B, C, and gabapentin were administered 60 minutes before, and diazepam or vehicle was administered 30 minutes before PTZ. Immediately following PTZ injection, mice were individually placed in an observation cage and the latency to onset of first convulsion (level 3 or higher; Table 2) was recorded, as well as the number of each type of convulsion (see Table 2 for scoring method modified from the scale used by Rizwan et al, Pol. J. Pharmacol., 55(6):965-71 (2003)).
Level I and 2 behaviors were not considered convulsions, but were scored to keep track of any possible sedative or abnormal effect following drug treatment.
Data are expressed as the number of myoclonic convulsions (level 3+level 4 events), number of clonic convulsions (level 5 events), and number of tonic-clonic events (level 6+level 7 events; Table 3-1), as well as the latency to first convulsion onset (in seconds). The sum of each convulsion type/mouse (myclonic, clonic, or clonic-tonic) was entered into GraphPad Prism and analyzed by One-Way ANOVA with post-hoc Dunnett's Multiple Comparisons Tests relative to vehicle+PTZ. Overall significance was established when P<0.0125 (corrected for number of groups). Post-hoc comparisons were considered significant when P<0.05.

[1] = 1 mg/kg intraperitoneal, 60 minutes before PTZ 50 mg/kg IP
[2] = 10 mg/kg intraperitoneal, 60 minutes before PTZ 50 mg/kg IP
[3] = 0.5 mg/kg intraperitoneal, 30 minutes before PTZ 50 mg/kg IP
[4] = 50 mg/kg intraperitoneal, 60 minutes before PTZ 50 mg/kg IP

Structure (SMILES) | Latency to first convulsion [1] [s] | Number of events Myoclonic [1] | Number of events Clonic [1] | Number of events Tonic-Clonic [1] | other results
NC(C(=O)N1CCCC1)C(O)c1ccncc1 (racemic) [Compound A] | 342.8 ± 76.7 | 1.40 ± 0.4 | 0.2 ± 0.1 | 0.5 ± 0.2 | –
N[C@@H](C(=O)N1CCCC1)[C@@H](O)c1ccncc1 [Compound B] | 208.8 ± 84.29 | 0.83 ± 0.31 | 0.83 ± 0.17 | 0.0 ± 0.0 | Latency to first convulsion [2]: 308.9 ± 92.55 s; Number of events Myoclonic [2]: 0.17 ± 0.17; Number of events Clonic [2]: 0.50 ± 0.22; Number of events Tonic-Clonic [2]: 0.33 ± 0.21
N[C@@H](C(=O)N1CCCC1)[C@@H](O)c1ccc(F)cc1 [Compound C] | 367.1 ± 78.30 | 2.00 ± 1.02 | 0.10 ± 0.10 | 0.0 ± 0.0 | –
CN1C(=O)CN=C(c2ccccc2)c2cc(Cl)ccc21 [Diazepam, reference compound] | – | – | – | – | Latency to first convulsion [3]: 546.4 ± 53.60 s; Number of events Myoclonic [3]: 0.0 ± 0.0; Number of events Clonic [3]: 0.0 ± 0.0; Number of events Tonic-Clonic [3]: 0.60 ± 0.60
NCC1(CC(=O)O)CCCCC1 [Gabapentin, reference compound] | – | – | – | – | Latency to first convulsion [4]: 194.8 ± 30.41 s; Number of events Myoclonic [4]: 1.20 ± 0.55; Number of events Clonic [4]: 0.90 ± 0.18; Number of events Tonic-Clonic [4]: 0.20 ± 0.13
